Laboratory results as given in US20110165115A1, “SYNERGISTIC ATTRACTANTS FOR PESTIFEROUS SOCIAL INSECTS” (STERLING INTERNATIONAL INC., priority 2010, published 2011).

What was measured:
D. maculata = assay: Field trapping Experiment 3, different doses of DMNT alone; type: in vivo, Dolichovespula maculata
Experimental: (§1) Three field trapping experiments were carried out during late July to early August 2009, in residential and woody areas around Spokane, Wash., USA, using the newly marketed Rescue® W•H•Y traps (www.rescue.com). As used herein, the W•H•Y trap is a trap in accordance with the description of United States Patent Application Publication No. 2009/0151228. The W•H•Y trap has a top chamber and a bottom chamber. The top chamber is baited with two attractants—one of which is a solid contained in a vial (2-methyl-1-butanol) and the other a liquid mixed with water (acetic acid), herein referred to as the W•H•Y top attractant. The bottom chamber is baited with a liquid attractant (heptyl butyrate) poured onto a cotton pad, herein referred to as the W•H•Y bottom attractant. Separation of the top and bottom attractants (otherwise antagonistic to each other when released from the same chamber) in two chambers was a design feature of this trap and creates two focal attraction sources from one trap for different species of wasps, hornets, and yellowjackets. Traps were hung 1.5-2.0 m above the ground on either the fence or tree branches ca. 5 m apart within each trap line. For each trapping experiment, six sets of traps were deployed with their initial trap positions within each set being randomized. To minimize positional effects and obtain more replications, wasp collections and trap re-randomization were carried out when ≧10-20 wasps were caught in the best trap. Each replicate lasted several days depending on wasp flight activity. Captured wasps were removed from the traps and kept in the zip-bags before taking back to the laboratory for recording of the species, gender status, and catch.
(§2) Experiment 1 (Jul. 22-30, 2009) tested ten synthetic HIPV candidates [(E)-2-hexenal, (Z)-3-hexen-1-ol, (Z)-3-hexenyl acetate, cis-ocimene, linalool, methyl salicylate, geranyl acetate, trans-β-caryophyllene, trans-β-farnesene and (E)-4,8-dimethyl-1,3,7-nonatriene], including several paper wasp EAD-active compounds (see FIG. 2 for details), to determine their potential synergistic effect on the Rescue® W•H•Y trap attractants to paper wasps, yellowjackets, and hornets. Experiment 2 (Aug. 5-13, 2009) tested behavioral responses of the paper wasps and yellowjackets to the Rescue® W•H•Y trap attractants (top attractants only) and its combination with (E)-4,8-dimethyl-1,3,7-nonatriene, one of the EAD-active and behaviorally significant HIPVs, in a dose-response fashion. Experiment 3 (Aug. 5-13, 2009) was conducted to determine the potential behavioral activity of different doses of (E)-4,8-dimethyl-1,3,7-nonatriene alone. The individual (or different doses) HIPVs were loaded into either polyethylene bags or centrifuge tube type of dispensers, and released from the top of the W•H•Y trap chamber. W•H•Y trap attractants (both top and bottom or top only) alone and water (top chamber only) were included in the test as positive and blank controls, respectively. The dispenser types, loading and release rates of the tested semiochemicals are described in Tables 1, 2 and 3.
(§3) Trap catch data were converted to proportion (P) of total captured wasps within each replicate. Data were then transformed by arcsin√P to meet the assumptions of normality and homogeneity of variances for ANOVA. Means were compared by ANOVA followed by the Ryan-Einot-Gabriel-Welsh (REGW) multiple Q test (SPSS 16.0 for Windows) at α=0.05.

V. atropilosa = assay: Field trapping Experiment 2, DMNT dose-response with W•H•Y top attractants; type: in vivo, Vespula atropilosa; conditions: Exp 2, DMNT added to WHY top attractant
Experimental: as §1
(§4) Experiment 3 (Aug. 5-13, 2009) was conducted to determine the potential behavioral activity of different doses of (E)-4,8-dimethyl-1,3,7-nonatriene alone. The individual (or different doses) HIPVs were loaded into either polyethylene bags or centrifuge tube type of dispensers, and released from the top of the W•H•Y trap chamber. W•H•Y trap attractants (both top and bottom or top only) alone and water (top chamber only) were included in the test as positive and blank controls, respectively. The dispenser types, loading and release rates of the tested semiochemicals are described in Tables 1, 2 and 3.
as §3

V. acadica = assay: Field trapping Experiment 3, different doses of DMNT alone; type: in vivo, Vespula acadica
Experimental: as §1, §4, §3

V. vulgaris = assay: as above; type: in vivo, Vespula vulgaris
Experimental: as §1, §4, §3

P. aurifer [1] = assay: as above; type: in vivo, Polistes aurifer
Experimental: as §1, §4, §3

P. aurifer [2] = assay: Field trapping Experiment 2, DMNT dose-response with W•H•Y top attractants; type: in vivo, Polistes aurifer; conditions: Exp 2, DMNT added to WHY top attractant
Experimental: as §1, §4, §3

paper wasps = assay: Field trapping Experiment 1, top chamber catches; type: in vivo, P. dominulus and P. aurifer; conditions: Exp 1; HIPV combined with W•H•Y attractant (acetic acid and 2-methyl-1-butanol) in the top chamber
Experimental: as §1, with “To minimize positional effects and obtain more replications, wasp collections and trap re-randomization were carried out when ≧10-20 wasps were caught in the best trap. Each replicate lasted several days depending on wasp flight activity. Captured wasps were removed from the traps and kept in the zip-bags before taking back to the laboratory for recording of the species, gender status, and catch.” left out

V. pensylvanica = assay: Field trapping Experiment 2, DMNT dose-response with W•H•Y top attractants; type: in vivo, Vespula pensylvanica; conditions: Exp 2, DMNT added to WHY top attractant
Experimental: as §1, §4, §3

[3] = tested on: paper wasps and yellowjackets; assay: Field trapping bioassays, synergism with AA/2MB (summary); type: in vivo; conditions: at the doses tested
Experimental: as §1
Experiment 3 (Aug. 5-13, 2009) was conducted to determine the potential behavioral activity of different doses of (E)-4,8-dimethyl-1,3,7-nonatriene alone. The individual (or different doses) HIPVs were loaded into either polyethylene bags or centrifuge tube type of dispensers, and released from the top of the W•H•Y trap chamber. […]

[4] = tested on: paper wasps, yellowjackets, or hornets; assay: Field trapping Experiment 3, DMNT alone; type: in vivo; conditions: Exp 3, different doses alone, without any W•H•Y attractants
Experimental: as §1, with “To minimize positional effects and obtain more replications, wasp collections and trap re-randomization were carried out when ≧10-20 wasps were caught in the best trap. Each replicate lasted several days depending on wasp flight activity. Captured wasps were removed from the traps and kept in the zip-bags before taking back to the laboratory for recording of the species, gender status, and catch.” left out

D. arenaria = assay: Field trapping Experiment 3, different doses of DMNT alone; type: in vivo, Dolichovespula arenaria
Experimental: as §1, §2, §3

P. dominulus = assay: as above; type: in vivo, Polistes dominulus
Experimental: as §1, §4, §3

[5] = Exp 3, release rate 0.25, hole 0.5 mm, loading 15 μL
[6] = Exp 3, release rate 0.5, hole 1 mm, loading 30 μL
[7] = Exp 3, release rate 1, hole 2 mm, loading 75 μL
[8] = Exp 3, release rate 1.5, hole 3 mm, loading 175 μL
[9] = Exp 3, release rate 2, hole 5.5 mm, loading 325 μL
[10] = release rate 0.25, hole 0.5 mm, loading 15 μL
[11] = release rate 0.5, hole 1 mm, loading 30 μL
[12] = release rate 1, hole 2 mm, loading 75 μL
[13] = release rate 1.5, hole 3 mm, loading 175 μL
[14] = release rate 2, hole 5.5 mm, loading 325 μL

## C=C/C=C(\C)CCC=C(C)C [(E)-4,8-dimethyl-1,3,7-nonatriene]
D. maculata; [5]
  Total Yellowjackets Caught D. maculata: 0
D. maculata; [6]
  Total Yellowjackets Caught D. maculata: 0
D. maculata; [7]
  Total Yellowjackets Caught D. maculata: 0
D. maculata; [8]
  Total Yellowjackets Caught D. maculata: 0
D. maculata; [9]
  Total Yellowjackets Caught D. maculata: 0
V. atropilosa; [10]
  Total Yellowjackets Caught V. atropilosa: 0
V. atropilosa; [11]
  Total Yellowjackets Caught V. atropilosa: 0
V. atropilosa; [12]
  Total Yellowjackets Caught V. atropilosa: 0
V. atropilosa; [13]
  Total Yellowjackets Caught V. atropilosa: 0
V. atropilosa; [14]
  Total Yellowjackets Caught V. atropilosa: 1
V. acadica; [5]
  Total Yellowjackets Caught V. acadica: 0
V. acadica; [6]
  Total Yellowjackets Caught V. acadica: 0
V. acadica; [7]
  Total Yellowjackets Caught V. acadica: 0
V. acadica; [8]
  Total Yellowjackets Caught V. acadica: 0
V. acadica; [9]
  Total Yellowjackets Caught V. acadica: 0
V. vulgaris; [5]
  Total Yellowjackets Caught V. vulgaris: 4
V. vulgaris; [6]
  Total Yellowjackets Caught V. vulgaris: 6
V. vulgaris; [7]
  Total Yellowjackets Caught V. vulgaris: 4
V. vulgaris; [8]
  Total Yellowjackets Caught V. vulgaris: 2
V. vulgaris; [9]
  Total Yellowjackets Caught V. vulgaris: 5
P. aurifer [1]; [5]
  Total Paper Wasps Caught P. aurifer: 3
P. aurifer [1]; [6]
  Total Paper Wasps Caught P. aurifer: 1
P. aurifer [1]; [7]
  Total Paper Wasps Caught P. aurifer: 0
P. aurifer [1]; [8]
  Total Paper Wasps Caught P. aurifer: 5
P. aurifer [1]; [9]
  Total Paper Wasps Caught P. aurifer: 0
P. aurifer [2]; [10]
  Total Paper Wasps Caught P. aurifer: 0
P. aurifer [2]; [11]
  Total Paper Wasps Caught P. aurifer: 0
P. aurifer [2]; [12]
  Total Paper Wasps Caught P. aurifer: 0
P. aurifer [2]; [13]
  Total Paper Wasps Caught P. aurifer: 0
P. aurifer [2]; [14]
  Total Paper Wasps Caught P. aurifer: 0
Paper wasps
  effect on trap catches of paper wasps in the top chambers: significantly increased
V. pensylvanica; [10]
  Total Yellowjackets Caught V. pensylvanica: 68
V. pensylvanica; [11]
  Total Yellowjackets Caught V. pensylvanica: 90
V. pensylvanica; [12]
  Total Yellowjackets Caught V. pensylvanica: 47
V. pensylvanica; [13]
  Total Yellowjackets Caught V. pensylvanica: 77
V. pensylvanica; [14]
  Total Yellowjackets Caught V. pensylvanica: 46
[3]
  synergism of attraction to mixture of acetic acid and 2-methyl-1-butanol: synergize
[3]; listed as (E)-4,8-dimenthyl-1,3,7-nonatriene
  synergism of attraction to mixture of acetic acid and 2-methyl-1-butanol: significantly synergize
[4]
  attraction alone versus water blank control traps: not different
[4]; listed as DMNT
  attraction alone versus water blank control traps: not significantly attractive
D. arenaria; [5]
  Total Yellowjackets Caught D. arenaria: 0
D. arenaria; [6]
  Total Yellowjackets Caught D. arenaria: 0
D. arenaria; [7]
  Total Yellowjackets Caught D. arenaria: 0
D. arenaria; [8]
  Total Yellowjackets Caught D. arenaria: 0
D. arenaria; [9]
  Total Yellowjackets Caught D. arenaria: 0
P. dominulus; [5]
  Total Paper Wasps Caught P. dominulus: 7
P. dominulus; [6]
  Total Paper Wasps Caught P. dominulus: 6
P. dominulus; [7]
  Total Paper Wasps Caught P. dominulus: 4
P. dominulus; [8]
  Total Paper Wasps Caught P. dominulus: 17
P. dominulus; [9]
  Total Paper Wasps Caught P. dominulus: 10
